Data on 9 molecules can be found in publication PMC10386709, “Preparation of Alcohol Dehydrogenase–Zinc Phosphate Hybrid Nanoflowers through Biomimetic Mineralization and Its Application in the Inhibitor Screening” (Molecules, 2023).

The target in data set [1] is T1, Alcohol dehydrogenase (ADH) (Saccharomyces cerevisiae, UniProt P00330).
T1 construct: gene ADH1
T1 sequence (P00330 2-348): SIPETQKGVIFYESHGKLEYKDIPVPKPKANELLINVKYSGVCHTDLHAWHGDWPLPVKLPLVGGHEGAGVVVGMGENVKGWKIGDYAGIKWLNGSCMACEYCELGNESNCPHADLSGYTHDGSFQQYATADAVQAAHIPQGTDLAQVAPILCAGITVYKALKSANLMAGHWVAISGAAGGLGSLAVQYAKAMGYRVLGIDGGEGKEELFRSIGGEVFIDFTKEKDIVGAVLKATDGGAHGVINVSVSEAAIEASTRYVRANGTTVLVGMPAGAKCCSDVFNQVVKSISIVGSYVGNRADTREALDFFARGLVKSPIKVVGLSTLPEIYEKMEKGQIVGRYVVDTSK
The data set is described as follows: NADH absorbance at […] nm, immobilized ADH nanoflowers, % inhibition at […] (weak). The data set is classed as biochemical.

The target in data set [2] is T1, Alcohol dehydrogenase (ADH). The data set is described as follows: NADH absorbance at […] nm, immobilized ADH nanoflowers, % inhibition at […]. The data set is classed as biochemical.
Data set [3] has the same target. The data set is described as follows: NADH absorbance at […] nm, dose-response; free ADH (IC50 […] on immobilized ADH HNFs). The data set is classed as biochemical.
Substrate in the data set “purified protein”: NC(=O)c1ccc[n+]([C@@H]2O[C@H](COP(=O)([O-])OP(=O)(O)OC[C@H]3O[C@@H](n4cnc5c(N)ncnc54)[C@H](O)[C@@H]3O)[C@@H](O)[C@H]2O)c1
The data set is described as follows: purified protein. The data set is classed as biochemical, Saccharomyces cerevisiae. The settings on record: Zn2+.

Consider `Oc1cc(O)c2c(c1)O[C@H](c1ccc(O)c(O)c1)[C@@H](O)C2` [Cianidanol], for which the inhibition (as a rule, the change of the read-out against control, counted positive when it falls) at 1500 µM in data set [1] is 34.9 ± 4%. Consider `O=c1cc(-c2ccc(O)cc2)oc2cc(O)cc(O)c12` [apigenin], for which the inhibition at 1500 µM in data set [2] (read-out: Inhibition (%)) came to 52.5 ± 5.5%. `O=c1oc2c(O)c(O)cc3c(=O)oc4c(O)c(O)cc1c4c23` [ellagic acid]: the inhibition at 1500 µM in data set [2] (read-out: Inhibition (%)) amounted to 58.2 ± 10.3%. Turning to `O=C(O)c1cc(O)c(O)c(O)c1` [gallic acid], in data set [2] (read-out: Inhibition (%)), the inhibition at 1500 µM came out at 61.9 ± 2.8%. `O=C1C[C@@H](c2ccc(O)cc2)Oc2cc(O)cc(O)c21` [naringenin] had an inhibition at 1500 µM in data set [2] of 75.5 ± 2.1%.

The molecule `O=C(O)c1ccc(O)c(O)c1` [protocatechuic acid] showed an inhibition at 1500 µM in data set [2] of 68.3 ± 2.9%. Consider `CNC(=C[N+](=O)[O-])NCCSCc1ccc(CN(C)C)o1` [ranitidine], for which the IC50 (commonly the point on the concentration scale where inhibition reaches its midpoint) in data set [3] came out at 390 µM. The molecule `COc1cc(C(=O)O)ccc1O` [vanillic acid] came in with an inhibition at 1500 µM in data set [2] of 55.1 ± 1%.

B1: Alcohol dehydrogenase (ADH) (Saccharomyces cerevisiae S288C) (protein)
chain: SIPETQKGVIFYESHGKLEYKDIPVPKPKANELLINVKYSGVCHTDLHAWHGDWPLPVKLPLVGGHEGAGVVVGMGENVKGWKIGDYAGIKWLNGSCMACEYCELGNESNCPHADLSGYTHDGSFQQYATADAVQAAHIPQGTDLAQVAPILCAGITVYKALKSANLMAGHWVAISGAAGGLGSLAVQYAKAMGYRVLGIDGGEGKEELFRSIGGEVFIDFTKEKDIVGAVLKATDGGAHGVINVSVSEAAIEASTRYVRANGTTVLVGMPAGAKCCSDVFNQVVKSISIVGSYVGNRADTREALDFFARGLVKSPIKVVGLSTLPEIYEKMEKGQIVGRYVVDTSK
B1: the Km (as a rule, the concentration of substrate that gives half-maximal velocity) in the data set “purified protein” was 5.33 mM.
